Measured values as given in paper PMC9520775, “Everolimus pharmacokinetics and exposure-response relationship in Japanese patients with advanced breast cancer” (Frontiers in Pharmacology, 2022).
Where two headings read alike, the source gives them in different places.

Tests used:
breast cancer patients = system: breast cancer patients; parameters: method as in Ito et al., 2015; conditions: Japanese population in the BOLERO-2 study; ref Ito et al., 2015; cited from earlier work
[1] = parameters: method as in de Wit et al. (2016); conditions: ref de Wit et al. (2016), cited from earlier work
[2] = Everolimus whole blood concentrations and Bayesian estimation of PK parameters and trough concentrations; type: in vivo, human; conditions: for trough concentration estimate at grade 2 stomatitis: person
Description: Whole blood samples for the everolimus assay were collected at least two weeks after initiation of treatment or after the last everolimus dose change. Blood samples were collected at pre-dose, 1, 4, and 8 h after the everolimus dose. Blood everolimus concentrations were measured using a latex agglutination turbidimetric immunoassay ([Mori et al., 2014]) for the samples collected during November 2015 to September 2016 (n = 10) and using electrochemiluminescence immunoassay ([Blackburn et al., 1991]) for the samples collected during October 2016 to November 2018 (n = 8). Since these two techniques are highly correlated, the measured results were considered to be the same (r = 0.972) ([Sasano et al., 2016]).
PK parameters such as clearance (CL) and volume of distribution were estimated using Bayesian analysis in MW/Pharm++ software (Mediware, Prague, Czech Republic) ([Fuchs et al., 2013]). […] Ka was fixed for all analyses due to the limited data to characterize the absorption. The PK parameters were allometrically scaled to body weight to account for the effect of body size differences according to the following formula: Pi=Ppop×(BWi/BWstandard)^power where Pi was the estimated PK parameter for individual i, Ppop was the typical population value of the PK parameters. BWstandard was the standard body weight of 70 kg. The power coefficient was 0.75 for CL and intercompartment clearance and 1 for volume of distribution of the central compartment and the peripheral compartment.
Everolimus concentrations at steady-state or at the time of occurrence of dose-limiting toxicity was estimated using the Bayesian-estimated PK parameters of the individual patient.

[3] = parameters: method as in Miesner et al. (2016); conditions: kidney cancer patient, 10 mg everolimus, concomitant clarithromycin 500 mg twice daily for 12 days, acute renal failure; ref Miesner et al. (2016); cited from earlier work
[4] = system: patients with advanced or metastatic breast cancer; test: Progression-free survival (Kaplan-Meier, log-rank); type: in vivo, human; conditions: for PFS: single patient
Source text: This was a prospective, observational PK study. Patients with advanced or metastatic breast cancer who received everolimus between November 2015 and November 2018 at Kobe City Medical Center General Hospital were enrolled in this study. The main inclusion criteria included the following: age ≥20 years; Eastern Cooperative Oncology Group (ECOG) performance status (PS): 0 or 1; and adequate bone marrow, liver, and renal function. The main exclusion criteria were interstitial pneumonia or pulmonary fibrosis, HBsAg positive, and psychiatric or psychological symptoms that made it difficult to participate in the study. Every participant provided written informed consent. This study was conducted in accordance with the Declaration of Helsinki and approved by the Institutional Review Board, under Approval Number zn151103.
Statistical differences in everolimus trough concentrations, doses and body weights between patient cohorts were assessed using the Mann–Whitney test. Progression-free survival (PFS) was assessed using the Kaplan-Meier method and the log-rank test. All statistical analyses were performed using GraphPad Prism version 7.03 (San Diego, CA). p < 0.05 was considered statistically significant.

[5] = cited from earlier work
patients = conditions: cited from earlier work
[6] = five patients who did not experience DLTs
[7] = patients with breast, kidney and neuroendocrine cancer, ref Deppenweiler et al. (2017)

steady-state trough concentrations at the starting dose, range ([2]; 5 mg starting dose, six patients, approximated with Bayesian-estimated PK parameters): 11.3 to 29.6 ng/mL
estimated steady-state trough concentration when the dose was reduced and maintained without DLT, range ([2]; 13 patients who had DLTs): 5.7 to 24.2 ng/mL
median estimated steady-state trough concentration when the dose was reduced and maintained without DLT ([2]; 13 patients who had DLTs): 8.3 ng/mL
estimated trough concentration at the time of the DLTs, range ([2]; 13 patients with DLTs): 11.3 to 64.6 ng/mL
median estimated trough concentration at the time of the DLTs ([2]; 13 patients with DLTs): 19.0 ng/mL
CL, Mean ([2]; Bayesian estimate, steady state, Japanese breast cancer patients n = 18, scaled to 70 kg): 11.7 L/h/70 kg
estimated trough concentration after dose reduction ([2]; all patients except in one patient): higher than 6 ng/ml
steady-state trough concentration after restarting the treatment ([2]; case Figure 3A, 5 mg once daily, no DLTs): 8.4 ng/mL
trough concentration estimate at grade 2 stomatitis ([2]; case Figure 3A, 10 mg once daily, two weeks after initiation): 16.8 ng/mL
steady-state trough concentration after everolimus dose reduction ([2]; case Figure 3B, 5 mg every alternate day): 9.2 ng/mL
trough concentration estimate at grade 2 stomatitis ([2]; case Figure 3B, 5 mg once daily, day 90): 29.6 ng/mL
trough concentration, median [2, 6]: 19.0 ng/mL
trough concentration, range [2, 6]: 12.8 to 33.2 ng/mL
clearance (CL), range ([2]; inter-individual range, n = 18): 5.1–21.3 L/h/70 kg
volume of distribution of the central compartment, range ([2]; inter-individual range, n = 18): 9.9–103.6 L/70 kg
dose-adjusted trough concentrations, range ([2]; whole blood, steady state, doses 10, 5, 2.5 mg/day or 5 mg every alternate day): 1.3 to 6.5 ng/mL/mg/day
SMILES: CO[C@H]1C[C@@H]2CC[C@@H](C)[C@@](O)(O2)C(=O)C(=O)N2CCCC[C@H]2C(=O)O[C@H]([C@H](C)C[C@@H]2CC[C@@H](OCCO)[C@H](OC)C2)CC(=O)[C@H](C)/C=C(\C)[C@@H](O)[C@@H](OC)C(=O)[C@H](C)C[C@H](C)/C=C/C=C/C=C/1C [everolimus]
median PFS (breast cancer patients): 8.5 months
absorption rate constant (Ka) ([1]; fixed for all analyses): 0.643 h⁻¹
clearance (CL), population prior ([1]; two-compartment model, patients with thyroid cancer): 20.3 L/h
trough level of everolimus [3]: 110 ng/mL
PFS ([4]; case Figure 3A): 8.5 months
PFS ([4]; case Figure 3B): 13.8 months
trough concentration to which adjusting may significantly prolong PFS ([4]; discussion statement): 10 to 20 ng/mL
trough concentration group with significantly longer PFS ([4]; groups <10 (n = 9), 10–20 (n = 6), >20 ng/ml (n = 3), log-rank p = 0.0078): 10 to 20 ng/mL
number of patients with PFS more than 8.5 months ([4]; of 18 patients): 14
PFS, range ([4]; study population, n = 18): 1.7–55.8 months
median PFS ([4]; study population, n = 18, with exemestane): 13.7 months
suggested target trough concentration ([5]; kidney transplant patients, calcineurin-inhibitor-free regimen, ref Shipkova et al., 2016): 6 to 10 ng/mL
trough concentration associated with increased risk of progression [5, 7]: lower than 11.9 ng/ml
trough concentration associated with increased risk of toxicity [5, 7]: higher than 26.3 ng/ml
trough concentration threshold for increased risk of overall severe toxicity ([5]; review, ref Falkowski and Woillard (2019)): higher than 20 ng/ml
increase of risk of toxicity ([5]; trough concentrations higher than 26.3 ng/ml, ref Deppenweiler et al. (2017)): 4 fold
increase of risk of progression ([5]; trough concentrations lower than 11.9 ng/ml, ref Deppenweiler et al. (2017)): 3 fold
suggested target trough concentration ([5]; tuberous sclerosis, ref Combes et al., 2018): 5 to 15 ng/mL
incidence of stomatitis (patients; Japanese breast cancer patients, ref BOLERO-2 study): 88%
proportion of patients who required a second dose reduction to 2.5 mg daily (patients; clinical study in Spain (6/90), ref Pascual et al., 2017): 7%
proportion of patients who required a dose reduction to 5 mg daily (patients; clinical study in Spain (43/90), ref Pascual et al., 2017): 48%
incidence of stomatitis (patients; patients with breast cancer, ref Alexopoulos et al., 2022, Ruíz-Falcó Rojas et al., Tedesco-Silva et al.): 20%–50%
incidence of stomatitis (patients; renal transplant or tuberous sclerosis complex, ref Alexopoulos et al., 2022, Ruíz-Falcó Rojas et al., Tedesco-Silva et al.): approximately 10%
